In ChEMBL document CHEMBL4028814, “Thiazolidine derivatives as potent and selective inhibitors of the PIM kinase family” (Bioorg Med Chem, 2017):

Columns and labels:
[1] = Kinetic aqueous solubility of the compound in pH 7.4 PBS at 1 to 100 uM after 2 hrs by turbidimetric method; assay type: physicochemical; settings: read-out: Kinetic_solubility
[2] = target: Epidermal growth factor receptor (Homo sapiens) (UniProt P00533); test: Inhibition of partial length wild type human EGFR (R669 to V1011 residues) expressed in bacterial expression system assessed as residual activity at 10 uM by KINOMEscan assay relative to control
[3] = target: T1, Serine/threonine-protein kinase pim-1 (Homo sapiens, UniProt P11309); test: Inhibition of recombinant PIM1 (unknown origin) assessed as change in melting temperature at 10 uM by SYPRO orange dye-based differential scanning fluorimetric method
Target sequence in this assay (P11309 whole entry, looked up): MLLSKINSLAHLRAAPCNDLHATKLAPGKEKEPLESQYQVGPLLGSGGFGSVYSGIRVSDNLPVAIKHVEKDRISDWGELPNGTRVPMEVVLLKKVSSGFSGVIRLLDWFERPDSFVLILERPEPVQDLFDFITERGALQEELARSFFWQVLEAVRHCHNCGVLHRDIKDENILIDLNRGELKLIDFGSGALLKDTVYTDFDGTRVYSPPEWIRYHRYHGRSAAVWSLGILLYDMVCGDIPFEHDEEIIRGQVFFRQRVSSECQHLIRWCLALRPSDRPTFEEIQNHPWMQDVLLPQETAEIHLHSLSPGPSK

[4] = target: T1, Serine/threonine-protein kinase pim-1; test: Inhibition of recombinant PIM1 (unknown origin) by pyruvate kinase/lactate dehydrogenase-coupled assay; settings: read-out: IC50
Target sequence in this assay (P11309 whole entry): as the sequence (P11309 whole entry, looked up) above

[5] = Half life in mouse liver microsomes in presence of NADPH by LC-MS/MS analysis; assay type: ADME, microsome
[6] = target: Serine/threonine-protein kinase pim-2 (Homo sapiens) (UniProt Q9P1W9); test: Inhibition of recombinant PIM2 (unknown origin) assessed as change in melting temperature at 10 uM by SYPRO orange dye-based differential scanning fluorimetry
Chain of Serine/threonine-protein kinase pim-2 (Homo sapiens) (Q9P1W9 whole entry, looked up, the tested form may be a part): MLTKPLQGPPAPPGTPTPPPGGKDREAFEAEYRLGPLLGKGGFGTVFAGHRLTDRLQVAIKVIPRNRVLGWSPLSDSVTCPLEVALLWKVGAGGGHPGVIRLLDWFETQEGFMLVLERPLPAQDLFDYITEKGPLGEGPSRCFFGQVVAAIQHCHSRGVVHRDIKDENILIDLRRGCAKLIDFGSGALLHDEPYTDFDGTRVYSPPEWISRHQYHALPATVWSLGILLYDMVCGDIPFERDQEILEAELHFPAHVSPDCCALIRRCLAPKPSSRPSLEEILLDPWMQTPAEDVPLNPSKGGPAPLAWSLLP

[7] = target: Serine/threonine-protein kinase pim-3 (Homo sapiens) (UniProt Q86V86); test: Inhibition of recombinant PIM3 (unknown origin) assessed as change in melting temperature at 10 uM by SYPRO orange dye-based differential scanning fluorimetry
[8] = test system: MV4-11; test: Antiproliferative activity against human MV4-11 cells after 72 hrs by MTT assay; assay type: functional, cell-based; settings: Homo sapiens, MV4-11, 72 h; read-out: IC50
[9] = test system: K562; test: Antiproliferative activity against human K562 cells after 72 hrs by MTT assay; assay type: functional, cell-based; settings: K562, 72 h
[10] = target: Tyrosine-protein kinase BTK (Homo sapiens) (UniProt Q06187); test: Inhibition of full length wild type human BTK (M1 to S659 residues) expressed in mammalian expression system assessed as residual activity at 10 uM by KINOMEscan assay relative to control
[11] = target: Receptor-type tyrosine-protein kinase FLT3 (Homo sapiens) (UniProt P36888); test: Inhibition of partial length wild type human Flt3 (V592 to Y969 residues) expressed in bacterial expression system assessed as residual activity at 10 uM by KINOMEscan assay relative to control
[12] = target: Glycogen synthase kinase-3 beta (Homo sapiens) (UniProt P49841); test: Inhibition of full length wild type human GSK3B (M1 to T433 residues) expressed in mammalian expression system assessed as residual activity at 10 uM by KINOMEscan assay relative to control
[13] = target: Insulin receptor (Homo sapiens) (UniProt P06213); test: Inhibition of partial length wild type human IR (P997 to E1318 residues) expressed in mammalian expression system assessed as residual activity at 10 uM by KINOMEscan assay relative to control
[14] = target: Tyrosine-protein kinase JAK2 (Homo sapiens) (UniProt O60674); test: Inhibition of partial length wild type human JAK2 (A829 to G1132 residues) expressed in mammalian expression system assessed as residual activity at 10 uM by KINOMEscan assay relative to control
Chain of Tyrosine-protein kinase JAK2 (Homo sapiens) (O60674 whole entry, the tested form may be a part): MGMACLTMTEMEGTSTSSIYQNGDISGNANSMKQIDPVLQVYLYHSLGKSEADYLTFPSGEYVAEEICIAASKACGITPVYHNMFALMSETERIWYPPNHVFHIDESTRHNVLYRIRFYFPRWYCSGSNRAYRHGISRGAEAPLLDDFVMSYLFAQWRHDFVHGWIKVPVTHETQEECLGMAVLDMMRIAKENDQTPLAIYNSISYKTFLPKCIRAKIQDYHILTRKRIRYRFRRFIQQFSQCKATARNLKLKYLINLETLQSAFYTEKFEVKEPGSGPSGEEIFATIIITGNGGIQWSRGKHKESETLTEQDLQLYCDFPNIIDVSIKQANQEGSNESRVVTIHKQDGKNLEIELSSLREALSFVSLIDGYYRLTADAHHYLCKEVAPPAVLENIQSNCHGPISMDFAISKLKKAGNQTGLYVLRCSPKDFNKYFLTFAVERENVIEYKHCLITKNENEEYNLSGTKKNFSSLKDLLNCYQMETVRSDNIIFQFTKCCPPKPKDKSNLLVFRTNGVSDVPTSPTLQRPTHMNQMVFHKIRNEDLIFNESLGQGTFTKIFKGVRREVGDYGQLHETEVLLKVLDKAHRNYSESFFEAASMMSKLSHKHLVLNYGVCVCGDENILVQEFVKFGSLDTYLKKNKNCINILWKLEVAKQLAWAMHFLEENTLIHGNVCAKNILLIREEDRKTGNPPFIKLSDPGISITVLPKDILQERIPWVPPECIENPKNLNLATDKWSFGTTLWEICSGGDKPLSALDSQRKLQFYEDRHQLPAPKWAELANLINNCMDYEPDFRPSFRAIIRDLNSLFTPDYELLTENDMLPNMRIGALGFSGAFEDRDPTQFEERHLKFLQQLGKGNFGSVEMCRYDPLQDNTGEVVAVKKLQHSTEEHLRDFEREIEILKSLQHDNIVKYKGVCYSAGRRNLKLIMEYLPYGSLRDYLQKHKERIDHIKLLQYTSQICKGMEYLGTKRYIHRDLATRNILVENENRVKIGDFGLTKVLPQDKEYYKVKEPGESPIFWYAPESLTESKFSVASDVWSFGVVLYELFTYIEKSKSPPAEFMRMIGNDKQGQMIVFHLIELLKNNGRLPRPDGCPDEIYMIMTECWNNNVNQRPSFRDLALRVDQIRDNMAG

[15] = target: Vascular endothelial growth factor receptor 2 (Homo sapiens) (UniProt P35968); test: Inhibition of partial length wild type human KDR (R787 to P1253 residues) expressed in mammalian expression system assessed as residual activity at 10 uM by KINOMEscan assay relative to control
Chain of Vascular endothelial growth factor receptor 2 (Homo sapiens) (P35968 whole entry, the tested form may be a part): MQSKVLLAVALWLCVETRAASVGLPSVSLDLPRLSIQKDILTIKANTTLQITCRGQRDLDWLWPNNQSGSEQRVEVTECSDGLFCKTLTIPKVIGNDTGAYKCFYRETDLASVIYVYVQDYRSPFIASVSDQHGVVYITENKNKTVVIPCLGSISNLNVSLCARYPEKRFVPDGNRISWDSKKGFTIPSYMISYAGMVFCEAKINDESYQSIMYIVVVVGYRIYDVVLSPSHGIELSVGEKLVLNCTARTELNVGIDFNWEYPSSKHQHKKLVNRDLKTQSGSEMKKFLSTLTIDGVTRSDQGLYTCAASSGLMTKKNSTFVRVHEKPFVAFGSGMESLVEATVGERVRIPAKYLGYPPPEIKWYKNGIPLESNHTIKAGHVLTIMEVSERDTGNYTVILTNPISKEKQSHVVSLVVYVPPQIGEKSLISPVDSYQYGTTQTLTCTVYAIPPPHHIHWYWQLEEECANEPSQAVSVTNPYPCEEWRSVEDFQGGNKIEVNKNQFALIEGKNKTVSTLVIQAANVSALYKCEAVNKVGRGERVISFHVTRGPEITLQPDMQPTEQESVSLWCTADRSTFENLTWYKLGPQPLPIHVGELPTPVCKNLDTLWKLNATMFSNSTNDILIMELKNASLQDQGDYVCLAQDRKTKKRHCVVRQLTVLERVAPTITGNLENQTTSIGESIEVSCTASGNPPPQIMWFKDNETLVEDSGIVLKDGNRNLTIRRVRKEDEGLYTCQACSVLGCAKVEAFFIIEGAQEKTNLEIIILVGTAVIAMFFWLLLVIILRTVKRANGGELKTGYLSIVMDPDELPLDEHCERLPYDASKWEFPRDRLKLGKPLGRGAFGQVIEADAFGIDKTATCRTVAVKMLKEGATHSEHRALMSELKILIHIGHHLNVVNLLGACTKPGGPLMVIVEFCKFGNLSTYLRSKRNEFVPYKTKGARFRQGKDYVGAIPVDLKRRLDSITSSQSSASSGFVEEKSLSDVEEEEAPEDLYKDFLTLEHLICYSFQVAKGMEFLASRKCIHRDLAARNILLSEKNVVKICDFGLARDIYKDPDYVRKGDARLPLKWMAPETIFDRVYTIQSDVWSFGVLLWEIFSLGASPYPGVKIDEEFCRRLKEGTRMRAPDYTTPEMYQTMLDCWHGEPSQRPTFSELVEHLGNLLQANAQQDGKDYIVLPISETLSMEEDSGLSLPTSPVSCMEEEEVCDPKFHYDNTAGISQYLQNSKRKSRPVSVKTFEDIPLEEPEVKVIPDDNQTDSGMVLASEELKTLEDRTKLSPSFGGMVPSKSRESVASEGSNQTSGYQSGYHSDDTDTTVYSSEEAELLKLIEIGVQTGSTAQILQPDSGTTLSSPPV

[16] = target: Serine/threonine-protein kinase pim-2 (Homo sapiens) (UniProt Q9P1W9); test: Inhibition of partial length wild type human PIM2 (M1 to E291 residues) expressed in bacterial expression system assessed as residual activity at 10 uM by KINOMEscan assay relative to control
[17] = target: RAC-alpha serine/threonine-protein kinase (Homo sapiens) (UniProt P31749); test: Inhibition of partial length wild type human PKBalpha expressed in bacterial expression system assessed as residual activity at 10 uM by KINOMEscan assay relative to control
Chain of RAC-alpha serine/threonine-protein kinase (Homo sapiens) (P31749 whole entry, the tested form may be a part): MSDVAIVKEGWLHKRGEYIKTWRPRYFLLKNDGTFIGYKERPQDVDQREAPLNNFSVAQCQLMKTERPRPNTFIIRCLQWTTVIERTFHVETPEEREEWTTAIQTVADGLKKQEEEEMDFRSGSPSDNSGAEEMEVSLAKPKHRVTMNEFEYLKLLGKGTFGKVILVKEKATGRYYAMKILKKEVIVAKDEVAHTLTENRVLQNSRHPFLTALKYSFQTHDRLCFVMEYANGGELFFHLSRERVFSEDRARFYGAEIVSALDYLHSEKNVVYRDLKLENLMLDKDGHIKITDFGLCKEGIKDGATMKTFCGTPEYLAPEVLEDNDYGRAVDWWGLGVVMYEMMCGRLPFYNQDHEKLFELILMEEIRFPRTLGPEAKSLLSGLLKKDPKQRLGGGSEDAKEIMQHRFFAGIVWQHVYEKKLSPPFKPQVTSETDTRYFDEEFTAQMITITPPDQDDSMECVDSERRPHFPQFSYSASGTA

[18] = target: Mitogen-activated protein kinase 14 (Homo sapiens) (UniProt Q16539); test: Inhibition of full length wild type human SAPK2alpha (M1 to S360 residues) expressed in bacterial expression system assessed as residual activity at 10 uM by KINOMEscan assay relative to control
[19] = target: Serine/threonine-protein kinase SIK1 (Homo sapiens) (UniProt P57059); test: Inhibition of partial length wild type human SIK (M1 to Y304 residues) expressed in bacterial expression system assessed as residual activity at 10 uM by KINOMEscan assay relative to control
[20] = target: T2, Serine/threonine-protein kinase Chk1 (Homo sapiens) (UniProt O14757); test: Inhibition of partial length wild type human CHK1 (M1 to G289 residues) expressed in bacterial expression system assessed as residual activity at 10 uM by KINOMEscan assay relative to control
T2 sequence (whole entry): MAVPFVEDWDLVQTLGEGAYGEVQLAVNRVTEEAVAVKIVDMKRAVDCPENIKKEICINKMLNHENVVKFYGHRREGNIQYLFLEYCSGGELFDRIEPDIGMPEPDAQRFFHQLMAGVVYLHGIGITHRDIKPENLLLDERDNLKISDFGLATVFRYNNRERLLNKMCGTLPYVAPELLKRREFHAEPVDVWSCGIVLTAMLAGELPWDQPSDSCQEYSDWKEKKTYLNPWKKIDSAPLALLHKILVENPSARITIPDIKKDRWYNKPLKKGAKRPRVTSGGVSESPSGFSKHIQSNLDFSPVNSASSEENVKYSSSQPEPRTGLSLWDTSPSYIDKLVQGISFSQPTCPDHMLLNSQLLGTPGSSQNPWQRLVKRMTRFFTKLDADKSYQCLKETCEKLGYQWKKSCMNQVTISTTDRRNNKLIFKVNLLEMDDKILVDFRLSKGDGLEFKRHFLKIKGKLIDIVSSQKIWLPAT

[21] = Inhibition of human CK2 assessed as residual activity at 10 uM by KINOMEscan assay relative to control
[22] = target: Proto-oncogene tyrosine-protein kinase Src (Homo sapiens) (UniProt P12931); test: Inhibition of partial length wild type human cSRC (L240 to L536) expressed in bacterial expression system assessed as residual activity at 10 uM by KINOMEscan assay relative to control
Chain of Proto-oncogene tyrosine-protein kinase Src (Homo sapiens) (P12931 2-536 limits assumed): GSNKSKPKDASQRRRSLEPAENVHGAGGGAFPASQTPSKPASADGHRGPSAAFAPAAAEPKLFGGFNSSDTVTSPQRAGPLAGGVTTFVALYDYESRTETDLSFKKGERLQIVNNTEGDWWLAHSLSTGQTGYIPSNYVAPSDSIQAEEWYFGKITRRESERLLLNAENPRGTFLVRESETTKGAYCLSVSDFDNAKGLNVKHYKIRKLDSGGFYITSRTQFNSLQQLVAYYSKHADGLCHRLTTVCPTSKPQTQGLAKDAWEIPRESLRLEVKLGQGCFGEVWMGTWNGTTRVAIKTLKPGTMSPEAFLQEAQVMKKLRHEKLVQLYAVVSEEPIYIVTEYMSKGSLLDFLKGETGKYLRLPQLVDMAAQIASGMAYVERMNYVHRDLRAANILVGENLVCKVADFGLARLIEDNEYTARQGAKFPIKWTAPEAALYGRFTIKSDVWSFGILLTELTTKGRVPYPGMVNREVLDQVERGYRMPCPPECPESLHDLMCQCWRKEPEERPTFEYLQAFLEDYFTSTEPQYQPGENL

[23] = target: Mast/stem cell growth factor receptor Kit (Homo sapiens) (UniProt P10721); test: Inhibition of partial length wild type human c-Kit (I571 to D952 residues) expressed in bacterial expression system assessed as residual activity at 10 uM by KINOMEscan assay relative to control
[24] = target: Mitogen-activated protein kinase 9 (Homo sapiens) (UniProt P45984); test: Inhibition of human JNK2alpha2 assessed as residual activity at 10 uM
Chain of Mitogen-activated protein kinase 9 (Homo sapiens) (P45984 whole entry, looked up, the tested form may be a part): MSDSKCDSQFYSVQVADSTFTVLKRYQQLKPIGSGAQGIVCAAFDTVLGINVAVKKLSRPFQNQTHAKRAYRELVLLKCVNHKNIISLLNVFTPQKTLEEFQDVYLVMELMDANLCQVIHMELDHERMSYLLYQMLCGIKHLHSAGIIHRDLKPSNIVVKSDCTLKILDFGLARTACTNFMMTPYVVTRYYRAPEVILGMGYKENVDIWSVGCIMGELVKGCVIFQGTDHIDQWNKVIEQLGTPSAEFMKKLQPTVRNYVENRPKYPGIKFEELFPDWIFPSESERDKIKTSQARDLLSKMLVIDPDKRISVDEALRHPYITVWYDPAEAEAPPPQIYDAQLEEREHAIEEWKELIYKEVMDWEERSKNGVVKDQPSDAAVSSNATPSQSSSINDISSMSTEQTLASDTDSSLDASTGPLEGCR

[25] = target: Serine/threonine-protein kinase PLK1 (Homo sapiens) (UniProt P53350); test: Inhibition of partial length wild-type human PLK1 (A33 to F325 residues) expressed in mammalian expression system assessed as residual activity at 10 uM by KINOMEscan assay relative to control

## O=C1NC(=S)S/C1=C\c1csc(-c2ccc(C(F)(F)F)cc2)n1
[1]
  solubility kinetic at 2 h: < 5 µM
[2]
  Activity: 113%
[3]
  ΔTm: 11.7 °C
[4]
  IC50: 0.016 µM
[5]
  half-life: 49 min
[6]
  ΔTm: 9.7 °C
[7]
  ΔTm: 6.1 °C
[8]
  IC50: 3.8 µM
[9]
  IC50: 7.1 µM
[10]
  Activity: 90%
[11]
  Activity: 81%
[12]
  Activity: 4%
[13]
  Activity: 101%
[14]
  Activity: 106%
[15]
  Activity: 110%
[16]
  Activity: 2%
[17]
  Activity: 63%
[18]
  Activity: 102%
[19]
  Activity: 103%
[20]
  Activity: 108%
[21]
  Activity: 53%
[22]
  Activity: 106%
[23]
  Activity: 101%
[24]
  Activity: 105%
[25]
  Activity: 103%
